This is an account of results in patent US11168073B2, “3,3-difluoroallylamines or salts thereof and pharmaceutical compositions comprising the same” (YUHAN CORPORATION, priority 2018, dated 2021).

Holding throughout (format): biochemical
In assay [1] the target is T1, recombinant human DAO (diamine oxidase) (Homo sapiens, UniProt P19801).
T1 construct: purchased R&D systems
T1 sequence (P19801 20-751): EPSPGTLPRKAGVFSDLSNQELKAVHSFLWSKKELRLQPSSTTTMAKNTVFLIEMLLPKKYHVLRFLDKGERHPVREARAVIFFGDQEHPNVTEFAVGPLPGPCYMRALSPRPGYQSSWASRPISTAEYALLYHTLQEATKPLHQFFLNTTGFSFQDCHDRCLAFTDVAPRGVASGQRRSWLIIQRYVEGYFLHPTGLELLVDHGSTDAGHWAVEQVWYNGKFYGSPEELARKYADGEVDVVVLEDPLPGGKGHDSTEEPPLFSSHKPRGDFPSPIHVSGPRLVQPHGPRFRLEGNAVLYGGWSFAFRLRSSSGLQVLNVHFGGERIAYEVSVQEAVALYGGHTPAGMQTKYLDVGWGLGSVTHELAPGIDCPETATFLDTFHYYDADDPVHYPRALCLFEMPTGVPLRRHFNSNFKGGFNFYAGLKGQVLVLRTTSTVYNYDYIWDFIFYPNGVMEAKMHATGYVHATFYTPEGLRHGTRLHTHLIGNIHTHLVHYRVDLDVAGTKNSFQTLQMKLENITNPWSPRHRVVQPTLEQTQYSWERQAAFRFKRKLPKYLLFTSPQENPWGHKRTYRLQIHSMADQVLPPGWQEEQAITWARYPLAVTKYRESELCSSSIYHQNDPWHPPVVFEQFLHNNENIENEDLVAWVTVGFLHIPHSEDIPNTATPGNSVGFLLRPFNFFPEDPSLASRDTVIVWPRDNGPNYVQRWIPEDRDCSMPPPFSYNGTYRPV
The experiment in a line: Activity evaluation on recombinant human DAO (Amplex Red/HRP-coupled assay, 1 mM putrescine substrate). The note with it: read-out: Inhibitory Activity (IC50, nM) DAO. An outline of the steps:
(§1)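 Using an HRP-coupled Amplex Red readout (544/590 nm, kinetic over 1–2 h), IC50 values were fitted by 4-parameter logistic model to percent decrease in signal rate against DMSO control. Compounds (1:3 dilutions, 8 points, <1% DMSO) sat 30 min at 37 °C with enzyme in pH 7.4 phosphate buffer before substrate, 200 uM Amplex Red and HRP were added.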

A further assay deals with T2, recombinant human VAP-1 (Homo sapiens, UniProt Q16853).
T2 construct: purchased R&D systems
T2 sequence (Q16853 1-763): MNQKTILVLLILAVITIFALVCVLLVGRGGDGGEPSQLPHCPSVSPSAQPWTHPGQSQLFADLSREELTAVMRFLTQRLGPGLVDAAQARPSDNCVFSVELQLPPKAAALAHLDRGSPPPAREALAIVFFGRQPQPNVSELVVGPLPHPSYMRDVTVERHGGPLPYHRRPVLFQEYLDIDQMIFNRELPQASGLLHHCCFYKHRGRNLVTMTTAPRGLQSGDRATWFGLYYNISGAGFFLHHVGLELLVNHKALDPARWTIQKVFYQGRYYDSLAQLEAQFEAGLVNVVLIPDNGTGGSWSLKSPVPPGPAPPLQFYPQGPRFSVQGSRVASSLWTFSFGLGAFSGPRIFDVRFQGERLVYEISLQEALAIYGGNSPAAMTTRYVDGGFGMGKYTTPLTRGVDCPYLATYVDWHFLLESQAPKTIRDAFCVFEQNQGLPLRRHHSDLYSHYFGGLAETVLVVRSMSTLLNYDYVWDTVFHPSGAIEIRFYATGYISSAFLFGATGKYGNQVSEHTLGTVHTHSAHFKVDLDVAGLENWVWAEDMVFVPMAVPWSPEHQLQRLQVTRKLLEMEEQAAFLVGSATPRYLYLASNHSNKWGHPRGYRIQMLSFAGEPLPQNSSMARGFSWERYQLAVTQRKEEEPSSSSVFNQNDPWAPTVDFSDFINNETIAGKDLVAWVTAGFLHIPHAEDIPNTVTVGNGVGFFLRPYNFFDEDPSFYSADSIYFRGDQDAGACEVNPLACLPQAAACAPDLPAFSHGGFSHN
The experiment in a line: Activity evaluation on recombinant human VAP-1 (Amplex Red/HRP-coupled hydrogen peroxide assay, benzylamine substrate). The note with it: read-out: Inhibitory Activity (IC50, nM) human VAP-1. The method in brief: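 Hydrogen peroxide from benzylamine (1 mM) oxidation by human recombinant VAP-1 detected via HRP-coupled Amplex Red (200 uM) fluorescence, kinetic over 1–2 h. Enzyme and compound preincubated 30 min at 37 °C, pH 7.4 phosphate; 8-point dose response, signal-rate decrease versus DMSO control fitted to four-parameter logistic for IC50.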

Assay [2] has as its target T3, recombinant human MAO-A (monoamine oxidase-A) (Homo sapiens, UniProt P21397).
T3 construct: purchased Sigma-Aldrich
T3 sequence (P21397 1-527): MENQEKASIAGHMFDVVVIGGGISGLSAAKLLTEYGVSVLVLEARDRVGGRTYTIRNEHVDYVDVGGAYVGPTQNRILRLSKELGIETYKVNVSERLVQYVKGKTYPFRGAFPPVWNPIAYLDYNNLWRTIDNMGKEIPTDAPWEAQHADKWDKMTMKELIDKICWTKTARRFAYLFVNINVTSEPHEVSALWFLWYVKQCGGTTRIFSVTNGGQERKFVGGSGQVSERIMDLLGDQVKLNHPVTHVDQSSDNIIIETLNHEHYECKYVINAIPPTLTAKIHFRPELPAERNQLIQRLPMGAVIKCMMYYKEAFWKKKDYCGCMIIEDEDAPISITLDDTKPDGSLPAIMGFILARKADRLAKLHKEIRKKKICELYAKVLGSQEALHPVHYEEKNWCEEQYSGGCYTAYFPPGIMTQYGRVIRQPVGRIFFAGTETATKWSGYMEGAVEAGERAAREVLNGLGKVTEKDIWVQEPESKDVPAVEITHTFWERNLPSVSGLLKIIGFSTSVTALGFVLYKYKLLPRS
The experiment in a line: Activity evaluation on recombinant human MAO-A (Amplex Red/HRP-coupled assay, 0.5 mM tyramine substrate). The note with it: read-out: Inhibitory Activity (IC50, nM) MAO-A. An outline of the steps:
as §1

Assay [3] concerns the target T4, recombinant human MAO-B (monoamine oxidase-B) (Homo sapiens, UniProt P27338).
T4 construct: purchased Sigma-Aldrich
T4 sequence (P27338 1-520): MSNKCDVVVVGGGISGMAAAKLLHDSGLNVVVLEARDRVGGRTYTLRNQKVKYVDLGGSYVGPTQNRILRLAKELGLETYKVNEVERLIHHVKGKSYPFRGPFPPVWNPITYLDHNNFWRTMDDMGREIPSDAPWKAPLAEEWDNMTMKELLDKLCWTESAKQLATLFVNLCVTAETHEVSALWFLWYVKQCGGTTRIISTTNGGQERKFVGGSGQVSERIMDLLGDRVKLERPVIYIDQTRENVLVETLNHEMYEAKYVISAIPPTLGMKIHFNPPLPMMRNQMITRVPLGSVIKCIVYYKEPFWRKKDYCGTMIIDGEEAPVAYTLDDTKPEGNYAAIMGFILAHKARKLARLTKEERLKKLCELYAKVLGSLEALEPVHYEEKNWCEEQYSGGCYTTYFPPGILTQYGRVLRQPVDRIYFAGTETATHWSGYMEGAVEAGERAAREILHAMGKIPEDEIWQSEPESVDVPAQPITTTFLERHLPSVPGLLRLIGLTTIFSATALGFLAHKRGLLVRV
The experiment in a line: Activity evaluation on recombinant human MAO-B (Amplex Red/HRP-coupled assay, 1 mM benzylamine substrate). The conditions noted are these: read-out: Inhibitory Activity (IC50, nM) MAO-B. The method in brief: as §1

The mark [4] stands for this setting: recombinant human VAP-1, 30 min preincubation at 37° C., 1 mM benzylamine.
Setting [5] is: recombinant human VAP-1, benzylamine substrate.

Where a name gives a salt, the structure may show the parent alone. Read-outs that look alike come from different tables or passages of the source.

A word on the IC50: it is the midpoint of a concentration-inhibition curve. In the case of `NCC(Cn1ncn(-c2ccc(-c3ccc(C(F)(F)F)nc3)cc2F)c1=O)=C(F)F` [Example 33, 2-[2-(aminomethyl)-3,3-difluoro-allyl]-4-[2-fluoro-4-[6-(trifluoromethyl)-3-pyridyl]phenyl]-1,2,4-triazol-3-one Trifluoroacetate], the IC50 in assay [1] (1 mM putrescine) was found to be 17 nM; on recombinant human VAP-1 (setting [4]), 0.3 nM; in assay [2] (0.5 mM tyramine), 11000 nM; in assay [3] (1 mM benzylamine), 190 nM.
Consider `Cc1cc(-c2ccc(C(=O)N3CCOCC3)cc2)cnc1-n1cnn(CC(CN)=C(F)F)c1=O` [Example 236, 2-[2-(aminomethyl)-3,3-difluoro-allyl]-4-[3-methyl-5-[4-(morpholine-4-carbonyl)phenyl]-2-pyridyl]-1,2,4-triazol-3-one Trifluoroacetate], for which the concentration for half-maximal inhibition (IC50) in assay [1] (1 mM putrescine substrate) is 6700 nM; at recombinant human VAP-1 (setting [5]) it was 0.8 nM; in assay [2] (0.5 mM tyramine substrate), over 100000 nM; in assay [3] (1 mM benzylamine substrate), over 100000 nM.
Consider `NCC(Cn1ncn(Cc2ccc(-c3cccc(N4CCNCC4)c3)s2)c1=O)=C(F)F` [Example 107, 2-[2-(aminomethyl)-3,3-difluoro-allyl]-4-[[5-(3-piperazin-1-ylphenyl)-2-thienyl]methyl]-1,2,4-triazol-3-one Ditrifluoroacetate], for which the IC50 is 12000 nM in assay [1] (1 mM putrescine), 3.5 nM at recombinant human VAP-1 (setting [4]), over 100000 nM in assay [2] (0.5 mM tyramine) and 46000 nM in assay [3] (1 mM benzylamine).
For the compound `CC(=O)Nc1nc2ccc(-c3ccc(Cn4cnn(CC(CN)=C(F)F)c4=O)s3)cc2s1` [Example 131, N-[6-[5-[[1-[2-(aminomethyl)-3,3-difluoro-allyl]-5-oxo-1,2,4-triazol-4-yl]methyl]-2-thienyl]-1,3-benzothiazol-2-yl]acetamide trifluoroacetate], the IC50 was over 100000 nM in assay [1] (1 mM putrescine), 0.4 nM on recombinant human VAP-1 (setting [4]), 7800 nM in assay [2] (0.5 mM tyramine) and 12000 nM in assay [3] (1 mM benzylamine).
`NCC(Cn1ncn(Cc2ccc(-c3cccc(-c4nc[nH]n4)c3)s2)c1=O)=C(F)F` [Example 185, 2-[2-(aminomethyl)-3,3-difluoro-allyl]-4-[[5-[3-(1H-1,2,4-triazol-3-yl)phenyl]-2-thienyl]methyl]-1,2,4-triazol-3-one Trifluoroacetate]: the IC50 in assay [1] (1 mM putrescine substrate) is over 100000 nM; at recombinant human VAP-1 (setting [5]) it was 1.3 nM; in assay [2] (0.5 mM tyramine substrate), over 100000 nM; in assay [3] (1 mM benzylamine substrate), 28000 nM.
For the compound `COc1cc(-c2ccc(Cn3cnn(CC(CN)=C(F)F)c3=O)s2)cc(OC)c1OC` [Example 105, 2-[2-(aminomethyl)-3,3-difluoro-allyl]-4-[[5-(3,4,5-trimethoxyphenyl)-2-thienyl]methyl]-1,2,4-triazol-3-one Trifluoroacetate], the IC50 in assay [1] (1 mM putrescine) is over 10000 nM; at recombinant human VAP-1 (setting [4]), 1.5 nM; in assay [2] (0.5 mM tyramine), over 100000 nM; in assay [3] (1 mM benzylamine) it was 6500 nM.
Turning to `NCC(Cn1ncn(-c2cnc(-c3ccc(C(F)(F)F)nc3)cn2)c1=O)=C(F)F` [Example 91, 2-[2-(aminomethyl)-3,3-difluoro-allyl]-4-[5-[6-(trifluoromethyl)-3-pyridyl]pyrazin-2-yl]-1,2,4-triazol-3-one Trifluoroacetate], the IC50 is 1 nM in assay [1] (1 mM putrescine), 0.5 nM on recombinant human VAP-1 (setting [4]), over 100000 nM in assay [2] (0.5 mM tyramine) and 200 nM in assay [3] (1 mM benzylamine).
Regarding `NCC(Cn1ncn(-c2cnc(-c3ccc4c(c3)OCO4)cn2)c1=O)=C(F)F` [Example 93, 2-[2-(aminomethyl)-3,3-difluoro-allyl]-4-[5-(1,3-benzodioxol-5-yl)pyrazin-2-yl]-1,2,4-triazol-3-one Trifluoroacetate], the IC50 in assay [1] (1 mM putrescine) was 21 nM; on recombinant human VAP-1 (setting [4]), 0.3 nM; in assay [2] (0.5 mM tyramine), over 100000 nM; in assay [3] (1 mM benzylamine), 50 nM.
Consider `CCn1cc(-c2ccc(Cn3cnn(CC(CN)=C(F)F)c3=O)cc2)ccc1=O` [Example 270, 5-[4-[[1-[2-(aminomethyl)-3,3-difluoro-allyl]-5-oxo-1,2,4-triazol-4-yl]methyl]phenyl]-1-ethyl-pyridin-2-one Trifluoroacetate], for which the IC50 in assay [1] (1 mM putrescine substrate) is over 100000 nM; at recombinant human VAP-1 (setting [5]) it was 0.6 nM; in assay [2] (0.5 mM tyramine substrate) it was over 100000 nM; in assay [3] (1 mM benzylamine substrate), over 100000 nM.
For `Cc1cc(-c2cccc(N3CCNCC3)c2)cnc1-n1cnn(CC(CN)=C(F)F)c1=O` [Example 235, 2-[2-(aminomethyl)-3,3-difluoro-allyl]-4-[3-methyl-5-(3-piperazin-1-ylphenyl)-2-pyridyl]-1,2,4-triazol-3-one Ditrifluoroacetate], the IC50 in assay [1] (1 mM putrescine substrate) was over 100000 nM; at recombinant human VAP-1 (setting [5]) it was 1.4 nM; in assay [2] (0.5 mM tyramine substrate), over 100000 nM; in assay [3] (1 mM benzylamine substrate), 840 nM.
For `CCn1cc(-c2ccc(-c3cnc(-n4cnn(CC(CN)=C(F)F)c4=O)c(C)c3)cc2)cn1` [Example 290, 2-[2-(aminomethyl)-3,3-difluoro-allyl]-4-[5-[4-(1-ethylpyrazol-4-yl)phenyl]-3-methyl-2-pyridyl]-1,2,4-triazol-3-one Trifluoroacetate], the concentration for half-maximal inhibition (IC50) is 2380 nM in assay [1] (1 mM putrescine substrate), 0.7 nM at recombinant human VAP-1 (setting [5]), over 100000 nM in assay [2] (0.5 mM tyramine substrate) and 1190 nM in assay [3] (1 mM benzylamine substrate).
